In patent US20090118258A1, “COMBINATION THERAPY COMPRISING ANGIOTENSIN CONVERTING ENZYME INHIBITORS AND VASOPRESSIN RECEPTOR ANTAGONISTS” (priority 2007, published 2009):

Assays:
rat remnant kidney model [1] = experiment: Blood pressure in rat remnant kidney model; format: in vivo; conditions: Compound 1 10 and 30 mg/kg/d; enalapril; combination enalapril + Compound 1 30 mg/kg/d; FIG. 3
Protocol: (§1) Treatments were started 21 days after RMR, when animals already had overt nephropathy. Treatment groups (n=8/group, except enalapril n=7) included vehicle; Compound 1 at 10 mg/kg/d; Compound 1 at 30 mg/kg/d; enalapril at 15 mg/mL (in drinking water); and enalapril at 15 mg/mL+Compound 1 at 30 mg/kg/d. All compounds were administered in drinking water. An additional sham-operated untreated group was also included. Measurements were made at 21 d after RMR but before treatment, and at one and two months of treatment. […] Since the increased mortality was not dose dependent and was not apparent in the group receiving combination treatment with Compound 1 and enalapril (Table 1), the effect is likely due to chance and the known variability in the severity of renal failure in this model.
Blood pressure reduction can contribute to slowing the progression of renal disease in this animal model as well as in humans.

db/db mice = format: in vivo
Protocol: Male db/db mice, a genetic model of type 2 diabetes, develop early renal dysfunction manifested as increased urine albumin excretion. At 9 weeks of age diabetes was confirmed by measurement of blood glucose (>300 mg/dL) and animals assigned to one of three treatment groups (n=12/group): untreated, Compound 1, 30 mg/kg/d and enalapril, 30 mg/kg/d. Compounds were dosed in drinking water for 16 weeks. There was no mortality in any of the treatment groups. Body weights for animals were similar at the beginning of the study.

rat remnant kidney model [2] = experiment: Serum and urine electrolytes in remnant kidney model; format: in vivo; conditions: enalapril alone, combination
Protocol: as §1
(§2) Water intake and diuresis was increased in all treatment groups following RMR (Table 2). […] There were no differences in serum electrolytes in any of the treatment groups at the termination of the experiment (Table 2).
Urinary Na excretion was reduced in the vehicle treated RMR rats. […] Urinary K and Cl excretion were reduced in rats with RMR compared to control rats.

[3] = system: streptozotocin-induced diabetic rat; experiment: Streptozotocin-induced diabetic rat model of nephropathy; format: in vivo
Protocol: The streptozotocin-induced diabetic rat is a model of Type I diabetes that develops early renal dysfunction manifested as increased urine albumin excretion. One week after administration of streptozotocin, 65 mg/kg, i.p., rats were assigned to the following treatment groups: no treatment; Compound 1 at 30 mg/kg/d; or enalapril at 30 mg/kg/d. Both compounds were dosed in drinking water for 12 weeks. Mortality among the treatment groups at 12 weeks was 1/10 in the untreated and Compound 1-treated groups and 3/10 in the enalapril-treated group. As a result of the diabetic state, urine volumes were nearly 10 times that of non-diabetic rats. […] The fraction of filtered sodium and potassium excreted was unaffected by either Compound 1 and enalapril.

Type I diabetic rats = experiment: Arterial pressure and heart rate in Type I diabetic rats after seven days oral administration; format: in vivo, rat; conditions: oral administration for seven days
Protocol: Oral administration of Compound 1 for seven days in Type I diabetic rats had no effect on mean arterial pressure or heart rate over 48 h in diabetic rats. […] Oral administration of enalapril for seven days had no effect on arterial pressure over 48 h in diabetic rat

rat remnant kidney model [4] = experiment: Rat remnant kidney model of nephropathy (renal mass reduction, RMR); format: in vivo; conditions: for number of ED 1 positive cells per field (monocytes/macrophages in renal interstitium): termination, vehicle 63±4, not statistically significant; for Mortality rate: rat, in vivo
From the text: The rat remnant kidney model is an animal model of severe progressive renal failure. In this model, a state of severe progressive renal failure is produced by renal mass reduction (RMR) through removal of one kidney and ligation of several branches of the renal artery, resulting in infarction and loss of function of two thirds of the remaining kidney. The procedure creates the conditions of severe hypertension, proteinuria, progressive renal function deterioration, tubulointerstitial damage and glomerulosclerosis (Olson J L, Hostetter T H, Rennke H G, Brenner B M, Venkatachalam M A: “Altered glomerular permselectivity and progressive sclerosis following extreme ablation of renal mass”. Kidney Int 22:112-126, 1982).
Nephropathy is evident as a progressively increasing amount of protein in urine, increases in serum creatinine and increases in arterial pressure. In addition, severe sclerosis of the glomeruli, inflammatory cell infiltration and tubular damage are measurable through histological analysis within 3 months of renal mass reduction (RMR). These measures form the basis for determining efficacy in the model. Urine protein, serum creatinine and arterial pressure are similarly measured in humans to determine impact of treatments on disease progression.
The aim of this study was to evaluate the effects of Compound 1 compared to an ACE inhibitor (enalapril), as well as the combination treatment with Compound 1 and enalapril, on proteinuria and renal disease progression in this model. The effectiveness of these agents has been associated with reductions in proteinuria, slowing of the rate of rise in serum creatinine and reduction in glomerular sclerosis and thus slowing of the progression to end stage renal failure.
as §1

rat remnant kidney model [5] = experiment: Water intake and diuresis in remnant kidney model; format: in vivo; conditions: mean ± S.E.
Protocol: Treatments were started 21 days after RMR, when animals already had overt nephropathy. […] All compounds were administered in drinking water. An additional sham-operated untreated group was also included. Measurements were made at 21 d after RMR but before treatment, and at one and two months of treatment. […] Since the increased mortality was not dose dependent and was not apparent in the group receiving combination treatment with Compound 1 and enalapril (Table 1), the effect is likely due to chance and the known variability in the severity of renal failure in this model.
as §2

[6] = both doses of Compound 1, reduced in RMR rats vs control
[7] = 30 mg/kg/d in drinking water for 12 weeks
[8] = 1 and 2 months of treatment, Compound 1 10 and 30 mg/kg/d, enalapril 15 mg/mL, combination enalapril + Compound 1 30 mg/kg/d, FIG. 1
[9] = 1 month of treatment, Compound 1 10 mg/kg/d
[10] = 1 month of treatment, Compound 1 30 mg/kg/d
[11] = 2 month of treatment, Compound 1 10 mg/kg/d
[12] = 2 month of treatment, Compound 1 30 mg/kg/d
[13] = basal (before RMR and treatment), group Compound 1 10 mg/kg/d
[14] = basal (before RMR and treatment), group Compound 1 30 mg/kg/d
[15] = pre-treatment (21 d after RMR), group Compound 1 10 mg/kg/d
[16] = pre-treatment (21 d after RMR), group Compound 1 30 mg/kg/d

## COc1cc(C(=O)N2CC[C@]3(C=C(C(=O)O)CC3)Cc3ccccc32)ccc1NC(=O)c1cc(F)ccc1Cl [Compound 1]
Rat remnant kidney model [1]
  arterial pressure: significant reductions in arterial pressure compared to vehicle
db/db mice; 30 mg/kg/d in drinking water for 16 weeks, FIG. 5
  urinary albumin excretion (in words): unaffected
db/db mice; 30 mg/kg/d, compared to vehicle-treated animals
  mesangial surface area or percentage of glomerular area occupied by mesangium: No significant differences
db/db mice; 30 mg/kg/d, throughout 16 weeks of dosing
  urine osmolarity: unaffected by treatment
Rat remnant kidney model [2]; both doses of Compound 1 (10, 30 mg/kg/d), reduced in vehicle treated RMR rats
  urinary Na excretion: tended to normalize urinary Na excretion to similar extents
Rat remnant kidney model [2]; [6]
  urinary Cl excretion: tended to normalize urinary K and Cl excretion
  urinary K excretion: tended to normalize urinary K and Cl excretion
[3]; [7]
  fraction of filtered sodium and potassium excreted: unaffected
  urine endpoints: daily volume output, osmolarity, chloride, creatinine, sodium or potassium concentrations, clearances or excretion values: not significantly altered
[3]; 30 mg/kg/d in drinking water, compared to vehicle treated controls, FIG. 4
  urine albumin excretion: significant decrease
[3]; 30 mg/kg/d, compared to vehicle treated controls
  serum albumin concentrations: not statistically significant, serum albumin concentrations increased
[3]; 30 mg/kg/d, compared to vehicle treated diabetic rats
  kidney weight or renal glomerular or mesangial morphology: no significant effects
[3]; Compound 1 30 mg/kg/d
  urine free water clearance: trend toward increased urine free water clearance
[3]; Compound 1 30 mg/kg/d, compared to vehicle treated controls
  serum osmolarity: decreased significantly
Type I diabetic rats
  (mean) arterial pressure over 48 h: no effect
  heart rate over 48 h: no effect
Rat remnant kidney model [4]; [8]
  serum creatinine: reduced urine protein and serum creatinine when administered alone but not to the same extent as enalapril
  urine protein: reduced urine protein and serum creatinine when administered alone but not to the same extent as enalapril
Rat remnant kidney model [4]; Compound 1 10 mg/kg/d
  number of ED 1 positive cells per field (monocytes/macrophages in renal interstitium): 48±4 positive cells per field
Rat remnant kidney model [4]; Compound 1 30 mg/kg/d
  number of ED 1 positive cells per field (monocytes/macrophages in renal interstitium): 49±10 positive cells per field
Rat remnant kidney model [4]; Compound 1 10 and 30 mg/kg/d alone, combination Compound 1 30 mg/kg/d + enalapril, not dose dependent, judged due to chance
  mortality (in words): apparent excess mortality
Rat remnant kidney model [4]; 10 mg/kg/day, 1 month
  Mortality rate: 2/8
Rat remnant kidney model [4]; 10 mg/kg/day, 2 months
  Mortality rate: 4/8
Rat remnant kidney model [4]; 30 mg/kg/day, 1 month
  Mortality rate: 2/8
Rat remnant kidney model [4]; 30 mg/kg/day, 2 months
  Mortality rate: 3/8
Rat remnant kidney model [4]; renal histology at termination, Compound 1 10 or 30 mg/kg/d, enalapril, combination enalapril + Compound 1 30 mg/kg/d, FIG. 2
  percentage of sclerotic glomeruli: tended to decrease the percentage of sclerotic glomeruli compared with vehicle, but this was not statistically significant
Rat remnant kidney model [5]; [9]
  diuresis: 47 ± 2 mL/24 h
  water intake: 53 ± 9° mL/24 h
Rat remnant kidney model [5]; [10]
  diuresis: 41 ± 4 mL/24 h
  water intake: 60 ± 7 mL/24 h
Rat remnant kidney model [5]; [11]
  diuresis: 43 ± 5 mL/24 h
  water intake: 62 ± 6 mL/24 h
Rat remnant kidney model [5]; [12]
  diuresis: 49 ± 8 mL/24 h
  water intake: 60 ± 16 mL/24 h
Rat remnant kidney model [5]; [13]
  diuresis: 19 ± 1 mL/24 h
  water intake: 43 ± 5 mL/24 h
Rat remnant kidney model [5]; [14]
  diuresis: 19 ± 1 mL/24 h
  water intake: 47 ± 3 mL/24 h
Rat remnant kidney model [5]; [15]
  diuresis: 44 ± 3 mL/24 h
  water intake: 66 ± 5 mL/24 h
Rat remnant kidney model [5]; [16]
  diuresis: 55 ± 4 mL/24 h
  water intake: 76 ± 6 mL/24 h
